Reference: patent US8912200B2, “Alkynyl substituted pyrimidinyl-pyrroles active as kinases inhibitors” (Nerviano Medical Sciences S.R.L., priority 2011, dated 2014)

Legend:
[1] = biological target: T1, JAK2 kinase domain (Homo sapiens, UniProt O60674); test: Biochemical assay for inhibitors of JAK kinase activity (JAK2, 33P-γ-ATP/dowex resin); conditions: JAK2 kinase domain 1 nM, 60 μM ATP
T1 construct: commercially available JAK2 kinase domain; purchased Invitrogen, Eugene, Oreg
In short: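 Human JAK2 (1 nM) phosphorylated peptide BioDBn*306 (64 μM) with 60 μM ATP plus 3 nM 33P-γ-ATP in HEPES pH 7.5/MgCl2/DTT buffer, 60 min at room temperature. Unreacted ATP captured by Dowex resin; supernatant β-counted. IC50 from sigmoidal fit of ten-point 1:3 dilution curves.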

[2] = biological target: T2, Lyn full length (Homo sapiens, UniProt P07948); test: Biochemical assay for inhibitors of Lyn (Src family) kinase activity; conditions: Lyn full length 1 nM, 25 μM ATP
T2 construct: The assay has been performed using Lyn full length
T2 sequence (P07948 whole entry): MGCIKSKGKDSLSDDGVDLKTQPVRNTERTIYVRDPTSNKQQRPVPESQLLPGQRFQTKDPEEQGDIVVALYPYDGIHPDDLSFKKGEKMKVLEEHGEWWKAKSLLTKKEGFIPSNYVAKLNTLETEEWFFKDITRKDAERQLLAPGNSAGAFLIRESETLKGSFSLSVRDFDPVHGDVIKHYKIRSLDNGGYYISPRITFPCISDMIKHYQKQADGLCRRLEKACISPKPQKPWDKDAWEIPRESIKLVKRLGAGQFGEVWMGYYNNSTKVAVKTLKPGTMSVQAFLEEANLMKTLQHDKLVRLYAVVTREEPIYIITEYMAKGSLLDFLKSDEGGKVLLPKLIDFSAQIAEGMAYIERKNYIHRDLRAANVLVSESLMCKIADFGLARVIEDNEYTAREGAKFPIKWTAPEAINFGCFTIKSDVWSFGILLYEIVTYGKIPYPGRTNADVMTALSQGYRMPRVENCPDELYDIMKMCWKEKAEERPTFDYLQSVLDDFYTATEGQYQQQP
In short: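 Radiometric Lyn assay: 1 nM full-length enzyme in 50 mM HEPES pH 7.5 with 25 μM ATP plus 33P-γ-ATP and 250 μM ABI 1 peptide, 60 min at room temperature. Unreacted ATP removed by Dowex resin; supernatant β-counted. IC50 from sigmoidal fit of ten-point 1:3 dilution curves.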

[3] = test system: JAK2 dependent human megakaryoblastic leukemia cell line SET-2; test: Cell proliferation assay (CellTiter-Glo, 72 hours); format: cell-based; conditions: SET-2 cells
In short: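 About 5×10^3 SET-2 cells per well, in RPMI-1640 with 10% FBS, were exposed to inhibitor dilutions for 72 hours at 37 °C, 5% CO2. Viability read by CellTiter-Glo luminescence. IC50 from sigmoidal fitting of 8-point dilution curves.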

T1 sequence (O60674 849-1124 limits assumed): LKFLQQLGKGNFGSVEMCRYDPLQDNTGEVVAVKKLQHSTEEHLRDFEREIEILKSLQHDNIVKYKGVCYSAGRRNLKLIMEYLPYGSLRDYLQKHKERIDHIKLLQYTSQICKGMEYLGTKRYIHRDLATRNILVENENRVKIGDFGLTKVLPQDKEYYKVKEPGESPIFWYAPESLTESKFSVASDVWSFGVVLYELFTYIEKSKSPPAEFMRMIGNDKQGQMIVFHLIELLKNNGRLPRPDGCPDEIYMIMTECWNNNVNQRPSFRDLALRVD

Compound	IC50 [1] [nM]	IC50 [2] [nM]	IC50 ([3]; Homo sapiens) [nM]	IC50 [3] [nM]
Cc1ccc(Cl)cc1-c1[nH]c(-c2ccnc(N)n2)c(C#Cc2ccc(N3CCC(N4CCN(C)CC4)CC3)cc2)c1C(N)=O [compound 95, 5-(2-Aminopyrimidin-4-yl)-2-(5-chloro-2-methylphenyl)-4-({4-[4-(4-methylpiperazin-1-yl)piperidin-1-yl]phenyl}ethynyl)-1H-pyrrole-3-carboxamide]	8	281	400	–
Cc1ccc(Cl)cc1-c1[nH]c(-c2ccnc(N)n2)c(C#Cc2ccc(N3CCC(N4CCCCC4)CC3)cc2)c1C(N)=O [compound 97, 5-(2-Aminopyrimidin-4-yl)-4-{[4-(1,4′-bipiperidin-1′-yl)phenyl]ethynyl}-2-(5-chloro-2-methylphenyl)-1H-pyrrole-3-carboxamide]	12	293	740	–
Cc1ccc(Cl)cc1-c1[nH]c(-c2ccnc(N)n2)c(C#Cc2ccc(N3CCC(N4CCCC4)CC3)cc2)c1C(N)=O [compound 98, 5-(2-Aminopyrimidin-4-yl)-2-(5-chloro-2-methylphenyl)-4-({4-[4-(pyrrolidin-1-yl)piperidin-1-yl]phenyl}ethynyl)-1H-pyrrole-3-carboxamide]	36	208	1640	–
CCc1ccc(Cl)cc1-c1[nH]c(-c2ccnc(N)n2)c(C#Cc2ccccc2NCCN(C)C)c1C(N)=O [compound 101, 5-(2-Aminopyrimidin-4-yl)-2-(5-chloro-2-ethylphenyl)-4-[(2-{[2-(dimethylamino)ethyl]amino}phenyl)ethynyl]-1H-pyrrole-3-carboxamide]	5	25	200	–
CCc1ccc(Cl)cc1-c1[nH]c(-c2ccnc(N)n2)c(C#Cc2ccc(N3CCN(C)CC3)cc2)c1C(N)=O [compound 103, 5-(2-Aminopyrimidin-4-yl)-2-(5-chloro-2-ethylphenyl)-4-{[4-(4-methylpiperazin-1-yl)phenyl]ethynyl}-1H-pyrrole-3-carboxamide]	4	23	180	–
[(2-Aminophenyl)ethynyl]-4-(2-Amino-phenylethynyl)-5-(2-amino-pyrimidin-4-yl)-2-(5-chloro-2-methyl-phenyl)-1H-pyrrole-3-carboxamide [compound 74]	4	13	–	120

Now from value to compound, other results behind:

IC50 [1] [nM]	IC50 [2] [nM]	IC50 ([3]; Homo sapiens) [nM]	Compound	IC50 [3] [nM]
3	5	300	Cc1ccc(Cl)cc1-c1[nH]c(-c2ccnc(N)n2)c(C#Cc2cccc(N3CCN(C)CC3)c2)c1C(N)=O [compound 90, 5-(2-Aminopyrimidin-4-yl)-2-(5-chloro-2-methylphenyl)-4-{[3-(4-methylpiperazin-1-yl)phenyl]ethynyl}-1H-pyrrole-3-carboxamide carboxamide]	–
5	114	260	Cc1ccc(Cl)cc1-c1[nH]c(-c2ccnc(N)n2)c(C#Cc2cccc(OC3CCN(C)CC3)c2)c1C(N)=O [compound 91, 5-(2-Aminopyrimidin-4-yl)-2-(5-chloro-2-methylphenyl)-4-({3-[(1-methylpiperidin-4-yl)oxy]phenyl}ethynyl)-1H-pyrrole-3-carboxamide]	–
5	39	220	Cc1ccc(Cl)cc1-c1[nH]c(-c2ccnc(N)n2)c(C#Cc2ccc(OC3CCN(C)CC3)cc2)c1C(N)=O [compound 92, 5-(2-Aminopyrimidin-4-yl)-2-(5-chloro-2-methylphenyl)-4-({4-[(1-methylpiperidin-4-yl)oxy]phenyl}ethynyl)-1H-pyrrole-3-carboxamide]	–
5	93	230	Cc1ccc(Cl)cc1-c1[nH]c(-c2ccnc(N)n2)c(C#Cc2cc(N3CCN(C)CC3)ccc2F)c1C(N)=O [compound 93, 5-(2-Aminopyrimidin-4-yl)-2-(5-chloro-2-methylphenyl)-4-{[2-fluoro-5-(4-methylpiperazin-1-yl)phenyl]ethynyl}-1H-pyrrole-3-carboxamide]	–
32	661	290	Cc1ccc(Cl)cc1-c1[nH]c(-c2ccnc(N)n2)c(C#Cc2ccccc2NC2CCN(C)CC2)c1C(N)=O [compound 94, 5-(2-Aminopyrimidin-4-yl)-2-(5-chloro-2-methylphenyl)-4-({2-[(1-methylpiperidin-4-yl)amino]phenyl}ethynyl)-1H-pyrrole-3-carboxamide]	–
4	93	210	Cc1ccc(Cl)cc1-c1[nH]c(-c2ccnc(N)n2)c(C#Cc2ccc(N3CCC(N(C)C)CC3)cc2)c1C(N)=O [compound 96, 5-(2-Aminopyrimidin-4-yl)-2-(5-chloro-2-methylphenyl)-4-({4-[4-(dimethylamino)piperidin-1-yl]phenyl}ethynyl)-1H-pyrrole-3-carboxamide]	–
2	26	410	Cc1ccc(Cl)cc1-c1[nH]c(-c2ccnc(N)n2)c(C#Cc2ccc(N3CCNCC3)cc2)c1C(N)=O [compound 99, 5-(2-Aminopyrimidin-4-yl)-2-(5-chloro-2-methylphenyl)-4-{[4-(piperazin-1-yl)phenyl]ethynyl}-1H-pyrrole-3-carboxamide]	–
1	6	240	CCc1ccc(Cl)cc1-c1[nH]c(-c2ccnc(N)n2)c(C#Cc2cccc(OC3CCN(C)CC3)c2)c1C(N)=O [compound 102, 5-(2-Aminopyrimidin-4-yl)-2-(5-chloro-2-ethylphenyl)-4-({3-[(1-methylpiperidin-4-yl)oxy]phenyl}ethynyl)-1H-pyrrole-3-carboxamide]	–
